Source: ChEMBL document CHEMBL4673353, “Switching a Xanthine Oxidase Inhibitor to a Dual-Target Antagonist of P2Y and P2Y as an Oral Antiplatelet Agent with a Wider Therapeutic Window in Rats than Ticagrelor” (J Med Chem, 2020)

Target: Xanthine dehydrogenase/oxidase (Bos taurus, UniProt P80457)
Assay: Inhibition of bovine xanthine oxidase assessed as reduction in uric acid formation at 10 uM using xanthine as substrate preincubated for 15 mins followed by substrate addition measured at 30 sec interval for upto 2 mins by spectrophotometric analysis relative to control
Settings: cattle, time 17 min

Chain of Xanthine dehydrogenase/oxidase (P80457 whole entry): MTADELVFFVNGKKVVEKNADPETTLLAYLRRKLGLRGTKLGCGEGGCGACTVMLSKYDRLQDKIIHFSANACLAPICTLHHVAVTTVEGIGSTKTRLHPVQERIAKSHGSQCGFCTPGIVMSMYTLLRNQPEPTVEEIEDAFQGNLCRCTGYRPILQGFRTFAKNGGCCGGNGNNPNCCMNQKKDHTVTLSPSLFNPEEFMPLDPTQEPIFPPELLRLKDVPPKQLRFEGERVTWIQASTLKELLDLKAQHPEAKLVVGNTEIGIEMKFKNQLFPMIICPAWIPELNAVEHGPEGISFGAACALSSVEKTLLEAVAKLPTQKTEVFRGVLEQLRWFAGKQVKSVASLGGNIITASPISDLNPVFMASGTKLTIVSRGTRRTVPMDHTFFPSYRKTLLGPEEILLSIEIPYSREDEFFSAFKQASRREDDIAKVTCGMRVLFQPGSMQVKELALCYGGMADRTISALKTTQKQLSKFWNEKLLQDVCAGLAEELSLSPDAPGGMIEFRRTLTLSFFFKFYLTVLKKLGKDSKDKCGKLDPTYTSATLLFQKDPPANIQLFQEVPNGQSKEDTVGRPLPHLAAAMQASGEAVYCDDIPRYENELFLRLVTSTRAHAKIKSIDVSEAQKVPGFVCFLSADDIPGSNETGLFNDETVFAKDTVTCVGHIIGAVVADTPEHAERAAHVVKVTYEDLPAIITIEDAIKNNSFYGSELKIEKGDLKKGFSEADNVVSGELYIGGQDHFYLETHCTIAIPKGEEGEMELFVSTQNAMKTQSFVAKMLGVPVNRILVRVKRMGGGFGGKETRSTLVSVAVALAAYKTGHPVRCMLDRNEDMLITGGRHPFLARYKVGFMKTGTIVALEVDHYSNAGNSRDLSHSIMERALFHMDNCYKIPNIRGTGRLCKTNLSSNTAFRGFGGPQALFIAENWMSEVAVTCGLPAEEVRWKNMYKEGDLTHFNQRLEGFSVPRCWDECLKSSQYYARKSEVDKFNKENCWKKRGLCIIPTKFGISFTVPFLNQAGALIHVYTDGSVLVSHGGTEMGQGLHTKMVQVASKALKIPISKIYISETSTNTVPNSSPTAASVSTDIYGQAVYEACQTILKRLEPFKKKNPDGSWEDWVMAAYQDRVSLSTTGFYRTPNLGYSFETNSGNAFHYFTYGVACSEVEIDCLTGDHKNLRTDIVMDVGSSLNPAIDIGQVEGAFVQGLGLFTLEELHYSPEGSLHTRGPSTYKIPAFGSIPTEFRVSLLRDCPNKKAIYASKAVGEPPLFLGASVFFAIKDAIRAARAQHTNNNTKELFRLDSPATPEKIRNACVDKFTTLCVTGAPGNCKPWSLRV

inhibition at 10 µM | Structure (SMILES)
< 50% | CCCSc1nc(N[C@@H]2C[C@H]2c2ccc(F)c(F)c2)c2nnn([C@@H]3C[C@H](OCCO)[C@@H](O)[C@H]3O)c2n1 [TICAGRELOR]

Tested on: not listed separately
Assay: Antagonist activity at P2Y1 in rabbit platelet-rich plasma assessed as inhibition of ADP-induced increase in intracellular Ca2+ concentration preincubated for 5 mins followed by ADP addition and measured for 3 mins by fluo4 dye-based fluorescence assay
Format: cell-free
Settings: Oryctolagus cuniculus

IC50 | Structure (SMILES)
3.03 µM | CC(C)(C)c1ccccc1Oc1ncccc1NC(=O)Nc1ccc(OC(F)(F)F)cc1

Tested on: Plasma
Assay: Antiplatelet activity in rabbit platelet-rich plasma assessed as inhibition of ADP-induced platelet aggregation preincubated for 5 mins followed by ADP addition measured every 1 min for up to 6 mins by microplate reader analysis
Format: functional, cell-free
Settings: Oryctolagus cuniculus

IC50 | Structure (SMILES)
24.6 µM | CCOC(=O)c1c(C)nc(-c2cccc(C#N)c2)n1OCc1ccc(Br)cc1
9.26 µM | CCOC(=O)c1c(C)nc(-c2cccc(C#N)c2)n1C(C)C
5.88 µM | CCOC(=O)c1c(C)nc(-c2cccc(C#N)c2)n1OCc1ccc(F)cc1
6.83 µM | CCOC(=O)c1c(C)nc(-c2cccc(C#N)c2)n1OCc1ccc(Cl)cc1
5.93 µM | CCOC(=O)c1c(C)nc(-c2cccc(C#N)c2)n1OCc1ccccc1
5.54 µM | CC(C)(C)c1ccccc1Oc1ncccc1NC(=O)Nc1ccc(OC(F)(F)F)cc1
7.99 µM | COn1c(-c2cccc(C#N)c2)nc(C)c1C(=O)O
8.71 µM | CCOC(=O)c1c(C)nc(-c2cccc(C#N)c2)n1OCc1ccccc1Cl
9.13 µM | CCOC(=O)c1c(C)nc(-c2cccc(C#N)c2)n1OC
16.8 µM | CCOC(=O)c1c(C)nc(-c2ccc(OCC(C)C)c(C#N)c2)n1O
14.9 µM | CCOC(=O)c1c(C)nc(-c2ccccc2C#N)n1OC
6.74 µM | CCOC(=O)c1c(C)nc(-c2cccc(C#N)c2)n1OC(C)C
> 30 µM | CCOC(=O)c1c(C)nc(-c2cccc(C#N)c2)n1OCCC(=O)O
22.1 µM | CCOC(=O)c1c(C)nc(-c2cccc(C#N)c2)n1C
13.4 µM | CCOC(=O)c1c(C)nc(-c2ccc(C#N)cc2)n1OC
6.56 µM | Cc1ccc(COn2c(-c3cccc(C#N)c3)nc(C)c2C(=O)O)cc1
8.99 µM | CCOC(=O)c1c(C)nc(-c2cccc(C#N)c2)n1OCc1ccccc1F
6.24 µM | Cc1nc(-c2cccc(C#N)c2)n(OCc2ccccc2)c1C(=O)O
6.31 µM | CCOC(=O)c1c(C)nc(-c2cccc(C#N)c2)n1OCc1ccc(C)cc1

IC50 | Structure (SMILES)
6.35 µM | C=CCOn1c(-c2cccc(C#N)c2)nc(C)c1C(=O)O
22.4 µM | CCOC(=O)c1c(C)nc(-c2cccc(C#N)c2)n1OCc1cccc(F)c1
5.86 µM | C=CCOn1c(-c2cccc(C#N)c2)nc(C)c1C(=O)OCC
6.2 µM | CCOC(=O)c1c(C)nc(-c2cccc(C#N)c2)n1OCc1ccncc1
> 30 µM | CCOC(=O)c1c(C)nc(-c2cccc(C#N)c2)n1OCC(N)=O
8.75 µM | CCOC(=O)c1c(C)nc(-c2cccc(C#N)c2)n1OCc1ccc([N+](=O)[O-])cc1
6.8 µM | CCOC(=O)COn1c(-c2cccc(C#N)c2)nc(C)c1C(=O)OCC
> 30 µM | CCOC(=O)c1c(C)nc(-c2cccc(C#N)c2)n1OCc1cccc(C#N)c1
9.38 µM | CCOC(=O)c1c(C)nc(-c2cccc(C#N)c2)n1OCc1ccccc1C#N
15.7 µM | Cc1nc(-c2ccc(OCC(C)C)c(C#N)c2)n(O)c1C(=O)O
7.21 µM | CCCSc1nc(N[C@@H]2C[C@H]2c2ccc(F)c(F)c2)c2nnn([C@@H]3C[C@H](OCCO)[C@@H](O)[C@H]3O)c2n1 [TICAGRELOR]
17.6 µM | CCOC(=O)c1c(C)nc(-c2cccc(C#N)c2)n1O
11.4 µM | CCOC(=O)c1c(C)nc(-c2cccc(C#N)c2)n1OCCCO
19.4 µM | CCOC(=O)c1c(C)nc(-c2cccc(C#N)c2)n1OCc1cccc(Cl)c1
> 30 µM | CCOC(=O)c1c(C)nc(-c2ccccc2)n1OC
> 30 µM | CCOC(=O)c1[nH]c(-c2cccc(C#N)c2)nc1C
6.83 µM | CCOC(=O)c1c(C)nc(-c2cccc(C#N)c2)n1OCc1ccc(OC)cc1
9.47 µM | CCOC(=O)c1c(C)nc(-c2cccc(C#N)c2)n1OCc1ccc(C(=O)OC)cc1
6.25 µM | CCOCCOn1c(-c2cccc(C#N)c2)nc(C)c1C(=O)OCC

Target: P2Y purinoceptor 12 (Homo sapiens, UniProt Q9H244)
Assay: Antagonist activity at P2Y12 in human whole blood assessed as suppression of ADP-induced decrease in PGE1-induced VASP phosphorylation measured after 10 mins by immunostaining based flow cytometric analysis
Format: tissue-based
Settings: not given

Chain of P2Y purinoceptor 12 (Q9H244 whole entry): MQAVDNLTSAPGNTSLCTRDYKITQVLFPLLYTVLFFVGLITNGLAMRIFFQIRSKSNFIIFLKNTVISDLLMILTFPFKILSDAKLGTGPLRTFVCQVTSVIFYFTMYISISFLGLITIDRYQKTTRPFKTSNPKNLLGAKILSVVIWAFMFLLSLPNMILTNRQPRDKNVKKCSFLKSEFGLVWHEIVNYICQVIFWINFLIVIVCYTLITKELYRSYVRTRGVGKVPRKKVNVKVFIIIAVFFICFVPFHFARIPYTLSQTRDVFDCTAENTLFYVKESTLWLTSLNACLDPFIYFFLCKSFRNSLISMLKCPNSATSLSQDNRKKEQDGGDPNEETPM

IC50 | Structure (SMILES)
176 µM | CNc1nc(Cl)nc2c1ncn2CC(COC(=O)C(C)(C)C)COC(=O)C(C)(C)C
5.14 µM | CCCSc1nc(N[C@@H]2C[C@H]2c2ccc(F)c(F)c2)c2nnn([C@@H]3C[C@H](OCCO)[C@@H](O)[C@H]3O)c2n1 [TICAGRELOR]

Tested on: not listed separately
Assay: Toxicity in Sprague-Dawley rat model of tail-snip bleeding assessed as bleeding time at 10 mg/kg, po administered via gavage as single dose measured within 2 hrs post tail snip (reference value: 17.69 min)
Format: organism-based
Settings: in vivo

Structure (SMILES) | Time
CCCSc1nc(N[C@@H]2C[C@H]2c2ccc(F)c(F)c2)c2nnn([C@@H]3C[C@H](OCCO)[C@@H](O)[C@H]3O)c2n1 [TICAGRELOR] | 120 min

Tested on: Rattus norvegicus
Assay: Antithrombotic activity in FeCl3-induced Sprague-Dawley rat model of arterial thrombosis assessed as reduction in thrombus weight at 10 mg/kg, po qd administered as single dose for 7 days and measured 2 hrs post last dose
Format: functional
Set-up: scale not given: the % may be the effect or the level left
Settings: time 7 day

Structure (SMILES) | Activity
CCCSc1nc(N[C@@H]2C[C@H]2c2ccc(F)c(F)c2)c2nnn([C@@H]3C[C@H](OCCO)[C@@H](O)[C@H]3O)c2n1 [TICAGRELOR] | 39.2%

Tested on: not listed separately
Assay: Toxicity in Sprague-Dawley rat model of tail snip bleeding assessed as bleeding weight at 10 mg/kg, po administered via gavage as single dose measured within 2 hrs post tail snip(reference value: 0.08 g)
Format: organism-based
Settings: in vivo

Structure (SMILES) | Activity
CCCSc1nc(N[C@@H]2C[C@H]2c2ccc(F)c(F)c2)c2nnn([C@@H]3C[C@H](OCCO)[C@@H](O)[C@H]3O)c2n1 [TICAGRELOR] | 3.89 g
